Data from patent publication US12377070B2, “Substituted sulfoximine derivatives” (CADILA HEALTHCARE LIMITED, priority 2019, dated 2025).
Counter-ions that a name gives are not always drawn.

Each compound was assayed on IL-1β (assay: In vitro IL-1β inhibition in PMA-differentiated, LPS-primed, ATP-stimulated THP1 monocytes). Details: Homo sapiens, THP-1, THP1 cells differentiated with PMA 100 ng/mL; primed with 500 ng/mL LPS 4 hrs; compound 30 min; 5 mM ATP 1 hr; IL-1b in supernatant; read-out: IC50 (in vitro IL-1β inhibitory activity).
Assay type: cell-based
Protocol: THP1 monocytes were differentiated with PMA (100 ng/mL) and incubated at 37° C. for 20 hours in presence of 5% CO2. 2×10^5 differentiated cells were plated per well of 96 well tissue culture plates. The cells were primed using 500 ng/mL Lipopolysaccharide and incubating for 4 hrs under the same condition. The cells were then treated with various concentrations of the compounds for 30 min followed by treatment with 5 mM ATP for 1 hr. The supernatants were collected and analysed by IL-1b (Mabtech Cat #3415-1H-20) or TNF-a (Mabtech; Cat #3510-1H-20) detection kit. The data were analyzed using GraphPad Prism V7.0. Dose Response Curve (DRC) was constructed to determine the IC50 value by fitting percentage […] data to the GraphPad Prism using nonlinear regression analysis.

SMILES | IC50 [µM]
CC(C)(C)OC(=O)N1CCC[C@@]1(C)/C=C/S(=O)(=NC#N)NC(=O)Nc1c2c(cc3c1CCC3)CCC2 (stereo partly drawn) [Example 3, tert-butyl (2S)-2-((E)-2-(N′-cyano-N-((1,2,3,5,6,7-hexahydro-s-indacen-4-yl)carbamoyl)sulfamidimidoyl)vinyl)-2-methylpyrrolidine-1-carboxylate] | 19
CN1CCC[C@@]1(C)/C=C/S(=O)(=NC#N)NC(=O)Nc1c2c(cc3c1CCC3)CCC2 (stereo partly drawn) [Example 7, (E)-N′-cyano-2-((S)-1,2-dimethylpyrrolidin-2-yl)-N-((1,2,3,5,6,7-hexahydro-s-indacen-4-yl)carbamoyl)ethene-1-sulfonimidamide] | 1.5
N#CN=S(=O)(/C=C/[C@H]1CCCN1S(=O)(=O)C1CCCCC1)NC(=O)Nc1c2c(cc3c1CCC3)CCC2 (stereo partly drawn) [Example 8, (E)-N′-cyano-2-((R)-1-(cyclohexylsulfonyl)pyrrolidin-2-yl)-N-((1,2,3,5,6,7-hexahydro-s-indacen-4-yl)carbamoyl)ethene-1-sulfonimidamide] | 12
N#CN=S(=O)(/C=C/[C@H]1CCCN1S(=O)(=O)c1ccccc1C#N)NC(=O)Nc1c2c(cc3c1CCC3)CCC2 (stereo partly shown) [Example 9] | 11
N#CN=S(=O)(/C=C/[C@H]1CCCN1)NC(=O)Nc1c2c(cc3c1CCC3)CCC2 (stereo partly drawn) [Example 10, (E)-N′-cyano-N-((1,2,3,5,6,7-hexahydro-s-indacen-4-yl)carbamoyl)-2-((R)-pyrrolidin-2-yl)ethene-1-sulfonimidamide hydrochloride] | 6.4
CN1CCC[C@@H]1/C=C/S(=O)(=NC#N)NC(=O)Nc1c2c(cc3c1CCC3)CCC2 (stereo partly drawn) [Example 11, (E)-N′-cyano-N-((1,2,3,5,6,7-hexahydro-s-indacen-4-yl)carbamoyl)-2-((R)-1-methylpyrrolidin-2-yl)ethene-1-sulfonimidamide] | 2.3
CC(C)(C)OC(=O)N1CCC[C@]1(C)/C=C/S(=O)(=NC#N)NC(=O)Nc1c2c(cc3c1CCC3)CCC2 (stereo partly drawn) [Example 13, tert-butyl (2R)-2-((E)-2-(N′-cyano-N-((1,2,3,5,6,7-hexahydro-s-indacen-4-yl)carbamoyl)sulfamidimidoyl)vinyl)-2-methylpyrrolidine-1-carboxylate] | 4
C[C@]1(/C=C/S(=O)(=NC#N)NC(=O)Nc2c3c(cc4c2CCC4)CCC3)CCCN1 (stereo partly drawn) [Example 14, (E)-N′-cyano-N-((1,2,3,5,6,7-hexahydro-s-indacen-4-yl)carbamoyl)-2-((R)-2-methylpyrrolidin-2-yl)ethene-1-sulfonimidamide hydrochloride] | 9
CN1CCC[C@]1(C)/C=C/S(=O)(=NC#N)NC(=O)Nc1c2c(cc3c1CCC3)CCC2 (stereo partly drawn) [Example 15, (E)-N′-cyano-2-((R)-1,2-dimethylpyrrolidin-2-yl)-N-((1,2,3,5,6,7-hexahydro-s-indacen-4-yl)carbamoyl)ethene-1-sulfonimidamide] | 2.1
CC(C)N1CCC[C@@]1(C)/C=C/S(=O)(=NC#N)NC(=O)Nc1c2c(cc3c1CCC3)CCC2 (stereo partly drawn) [Example 17, (E)-N′-cyano-N-((1,2,3,5,6,7-hexahydro-s-indacen-4-yl)carbamoyl)-2-((S)-1-isopropyl-2-methylpyrrolidin-2-yl)ethene-1-sulfonimidamide] | 11
C[C@@]1(/C=C/S(=O)(=NC#N)NC(=O)Nc2c3c(cc4c2CCC4)CCC3)CCCN1C1CCCC1 (stereo partly drawn) [Example 18, (E)-N′-cyano-2-((S)-1-cyclopentyl-2-methylpyrrolidin-2-yl)-N-((1,2,3,5,6,7-hexahydro-s-indacen-4-yl)carbamoyl)ethene-1-sulfonimidamide] | 18
C[C@@]1(/C=C/S(=O)(=NC#N)NC(=O)Nc2c3c(cc4c2CCC4)CCC3)CCCN1C1CCC1 (stereo partly drawn) [Example 19, (E)-N′-cyano-2-((S)-1-cyclobutyl-2-methylpyrrolidin-2-yl)-N-((1,2,3,5,6,7-hexahydro-s-indacen-4-yl)carbamoyl)ethene-1-sulfonimidamide] | 4.6
C[C@@]1(/C=C/S(=O)(=NC#N)NC(=O)Nc2c3c(cc4c2CCC4)CCC3)CCCN1CC1CC1 (stereo partly drawn) [Example 21, (E)-N′-cyano-2-((S)-1-(cyclopropylmethyl)-2-methylpyrrolidin-2-yl)-N-((1,2,3,5,6,7-hexahydro-s-indacen-4-yl)carbamoyl)ethene-1-sulfonimidamide] | 4.6
CC(C)CN1CCC[C@@]1(C)/C=C/S(=O)(=NC#N)NC(=O)Nc1c2c(cc3c1CCC3)CCC2 (stereo partly drawn) [Example 24, (E)-N′-cyano-N-((1,2,3,5,6,7-hexahydro-s-indacen-4-yl)carbamoyl)-2-((S)-1-isobutyl-2-methylpyrrolidin-2-yl)ethene-1-sulfonimidamide] | 15
CC(=O)N1CCC[C@@]1(C)/C=C/S(=O)(=NC#N)NC(=O)Nc1c2c(cc3c1CCC3)CCC2 (stereo partly drawn) [Example 25, (E)-2-((S)-1-acetyl-2-methylpyrrolidin-2-yl)-N′-cyano-N-((1,2,3,5,6,7-hexahydro-s-indacen-4-yl)carbamoyl)ethene-1-sulfonimidamide] | 19
CCN1CCC[C@@]1(C)/C=C/S(=O)(=NC#N)NC(=O)Nc1c2c(cc3c1CCC3)CCC2 (stereo partly drawn) [Example 26, (E)-N′-cyano-2-((S)-1-ethyl-2-methylpyrrolidin-2-yl)-N-((1,2,3,5,6,7-hexahydro-s-indacen-4-yl)carbamoyl)ethene-1-sulfonimidamide] | 19
C[C@@]1(/C=C/S(=O)(=NC#N)NC(=O)Nc2c3c(cc4c2CCC4)CCC3)CCCN1Cc1nccs1 (stereo partly drawn) [Example 29, (E)-N′-cyano-N-((1,2,3,5,6,7-hexahydro-s-indacen-4-yl)carbamoyl)-2-((S)-2-methyl-1-(thiazol-2-ylmethyl)pyrrolidin-2-yl)ethene-1-sulfonimidamide] | 15
C[C@@]1(/C=C/S(=O)(=NC#N)NC(=O)Nc2c3c(cc4c2CCC4)CCC3)CCCN1C(N)=O (stereo partly drawn) [Example 31, (2S)-2-((E)-2-(N′-cyano-N-((1,2,3,5,6,7-hexahydro-s-indacen-4-yl)carbamoyl)sulfamidimidoyl)vinyl)-2-methylpyrrolidine-1-carboxamide] | 9.2
CC(C)(C)OC(=O)N1CCCC1/C=C/S(=O)(=NC#N)NC(=O)Nc1c2c(cc3c1CCC3)CCC2 [Example 34, tert-butyl (2R)-2-((E)-2-(N′-cyano-N-((1,2,3,5,6,7-hexahydro-s-indacen-4-yl)carbamoyl)sulfamidimidoyl)vinyl)pyrrolidine-1-carboxylate] | 19

Same assay, conditions: THP1 cells differentiated with PMA 100 ng/mL; primed with 500 ng/mL LPS 4 hrs; compound 30 min; 5 mM ATP 1 hr; IL-1b in supernatant; 2,2,2-trifluoroacetate; read-out: IC50 (in vitro IL-1β inhibitory activity)

SMILES | IC50 [µM]
C[C@@]1(/C=C/S(=O)(=NC#N)NC(=O)Nc2c3c(cc4c2CCC4)CCC3)CCCN1 (stereo partly drawn) [Example 22, (E)-N′-cyano-N-((1,2,3,5,6,7-hexahydro-s-indacen-4-yl)carbamoyl)-2-((S)-2-methylpyrrolidin-2-yl)ethene-1-sulfonimidamide 2,2,2-trifluoroacetate] | 8.9

Same assay, conditions: THP1 cells differentiated with PMA 100 ng/mL; primed with 500 ng/mL LPS 4 hrs; compound 30 min; 5 mM ATP 1 hr; IL-1b in supernatant; hydrochloride; read-out: IC50 (in vitro IL-1β inhibitory activity)

SMILES | IC50 [µM]
C[C@@]1(/C=C/S(=O)(=NC#N)NC(=O)Nc2c3c(cc4c2CCC4)CCC3)CCCN1 (stereo partly drawn) [Example 4, (E)-N′-cyano-N-((1,2,3,5,6,7-hexahydro-s-indacen-4-yl)carbamoyl)-2-((S)-2-methylpyrrolidin-2-yl)ethene-1-sulfonimidamide hydrochloride] | 20

Same assay, conditions: THP1 cells differentiated with PMA 100 ng/mL; primed with 500 ng/mL LPS 4 hrs; compound 30 min; 5 mM ATP 1 hr; IL-1b in supernatant; read-out: IC50 (in vitro IL-1β inhibitory activity)

SMILES | IC50 [µM]
C[C@@]1(/C=C/S(=O)(=NC#N)NC(=O)Nc2c3c(cc4c2CCC4)CCC3)CCCN1 (stereo partly drawn) [Example 20, (E)-N′-cyano-N-((1,2,3,5,6,7-hexahydro-s-indacen-4-yl)carbamoyl)-2-((S)-2-methylpyrrolidin-2-yl)ethene-1-sulfonimidamide] | 3.2
